Results: publication PMC8330742, “New benzothieno[2,3-c]pyridines as non-steroidal CYP17 inhibitors: design, synthesis, anticancer screening, apoptosis induction, and in silico ADME profile studies” (Journal of Enzyme Inhibition and Medicinal Chemistry, 2021)

Key:
UACC-62 = test: NCI-60 SRB screen; assay type: cell-based, human; conditions: UACC-62; five dose
NCI-H522 = test: NCI-60 SRB screen; assay type: cell-based, human; conditions: NCI-H522;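 on IC50: half-maximal inhibitory concentration read as cell viability unlike GI50 net growth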
HCT-15 = test: NCI-60 SRB screen; assay type: cell-based, human; conditions: HCT-15;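 on IC50: half-maximal inhibitory concentration read as cell viability unlike GI50 net growth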
SK-MEL-2 = test: NCI-60 SRB screen; assay type: cell-based, human; conditions: SK-MEL-2;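 on IC50: half-maximal inhibitory concentration read as cell viability unlike GI50 net growth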
HCC-2998 = test: NCI-60 SRB screen; assay type: cell-based, human; conditions: HCC-2998;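 on IC50: half-maximal inhibitory concentration read as cell viability unlike GI50 net growth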
HL-60(TB) = test: NCI-60 SRB screen; assay type: cell-based, human
NCI-H23 = test: NCI-60 SRB screen; assay type: cell-based, human; conditions: NCI-H23
SN12C = test: NCI-60 SRB screen; assay type: cell-based, human; conditions: SN12C
SK-MEL-5 = test: NCI-60 SRB screen; assay type: cell-based, human; conditions: SK-MEL-5
KM12 = test: NCI-60 SRB screen; assay type: cell-based, human; conditions: KM12
NCI-H322M = test: NCI-60 SRB screen; assay type: cell-based, human
COLO 205 = test: NCI-60 SRB screen; assay type: cell-based, human; conditions: COLO 205
TK-10 = test: NCI-60 SRB screen; assay type: cell-based, human; conditions: TK-10
UO-31 = test: NCI-60 SRB screen; assay type: cell-based, human; conditions: UO-31
SF-295 = test: NCI-60 SRB screen; assay type: cell-based, human; conditions: SF-295
[1] = tested on: panel of 60 cancer cell lines; test: NCI-60 SRB screen, mean or range over the panel; assay type: cell-based, human; conditions: Homo sapiens
HT-29 = test: NCI-60 SRB screen; assay type: cell-based
ACHN = test: NCI-60 SRB screen; assay type: cell-based
OVCAR-3 = test: NCI-60 SRB screen; assay type: cell-based, human; conditions: OVCAR-3
MOLT-4 = test: NCI-60 SRB screen; assay type: cell-based; conditions: MOLT-4
OVCAR-8 = test: NCI-60 SRB screen; assay type: cell-based, human; conditions: OVCAR-8
K-562 = test: NCI-60 SRB screen; assay type: cell-based, human; conditions: K-562
786-0 = test: NCI-60 SRB screen; assay type: cell-based; conditions: 786-0
[2] = Homo sapiens, single dose 10^−5 M, read-out: Growth inhibition (%)
[3] = Homo sapiens, HT-29, HT29, five dose

Compound: N#CC1C(=O)NC(c2ccccc2[N+](=O)[O-])c2sc3c(F)cccc3c21 (stereo not shown) [Compound 5c, 4-Cyano-8-fluoro-1-(2-nitrophenyl)-1,2-dihydro[1]benzothieno[2,3-c] pyridin-3(4H)-one]
- TGI (UACC-62): 47.20 µM
- GI50 (NCI-H522; Homo sapiens, five dose): 18.4 µM
- IC50 (NCI-H522; Homo sapiens, five dose): 41.7 µM
- inhibition at 10 µM (NCI-H522; [2]): 17.3%
- TGI (NCI-H522; five dose): 100 µM
- TGI (HCT-15; five dose): 100 µM
- GI50 (HCT-15; Homo sapiens, five dose): 11.4 µM
- IC50 (HCT-15; Homo sapiens, five dose): 16.6 µM
- inhibition at 10 µM (HCT-15; [2]): 12.3%
- GI50 (SK-MEL-2; Homo sapiens, five dose): 12.7 µM
- IC50 (SK-MEL-2; Homo sapiens, five dose): 33.9 µM
- inhibition at 10 µM (SK-MEL-2; [2]): 7.4%
- TGI (SK-MEL-2; five dose): 100 µM
- TGI (HCC-2998; five dose): 94.90 µM
- GI50 (HCC-2998; Homo sapiens, five dose): 17.4 µM
- IC50 (HCC-2998; Homo sapiens, five dose): 33.9 µM
- inhibition at 10 µM (HCC-2998; [2]): 6.16%
- TGI (HL-60(TB); HL-60(TB), five dose): 100 µM
- GI50 (HL-60(TB); Homo sapiens, HL-60): 14.2 µM
- IC50 (HL-60(TB); Homo sapiens, HL-60): 28.2 µM
- inhibition at 10 µM (HL-60(TB); Homo sapiens, HL-60, read-out: Growth inhibition (%)): 18.8%
- GI50 (NCI-H23; Homo sapiens, five dose): 7.33 µM
- IC50 (NCI-H23; Homo sapiens, five dose): 19.5 µM
- inhibition at 10 µM (NCI-H23; [2]): 32.9%
- TGI (NCI-H23; five dose): 100 µM
- inhibition at 10 µM (SN12C; Homo sapiens, SN 12 C, single dose 10^−5 M, read-out: Growth inhibition (%)): 20.9%
- GI50 (SN12C; Homo sapiens, five dose): 18.6 µM
- IC50 (SN12C; Homo sapiens, five dose): 34.7 µM
- TGI (SN12C; five dose): 100 µM
- GI50 (SK-MEL-5; Homo sapiens, five dose): 13 µM
- IC50 (SK-MEL-5; Homo sapiens, five dose): 20.9 µM
- inhibition at 10 µM (SK-MEL-5; [2]): 24.9%
- TGI (SK-MEL-5; five dose): 67.60 µM
- GI50 (KM12; Homo sapiens, five dose): 19.9 µM
- IC50 (KM12; Homo sapiens, five dose): 32.4 µM
- inhibition at 10 µM (KM12; [2]): 8.58%
- TGI (KM12; five dose): 100 µM
- GI50 (NCI-H322M; Homo sapiens, five dose): 7.37 µM
- IC50 (NCI-H322M; Homo sapiens, five dose): 23.4 µM
- inhibition at 10 µM (NCI-H322M; [2]): 98%
- TGI (NCI-H322M; five dose): 100 µM
- TGI (COLO 205; five dose): 100 µM
- GI50 (COLO 205; Homo sapiens, five dose): 10.3 µM
- IC50 (COLO 205; Homo sapiens, five dose): 17.8 µM
- inhibition at 10 µM (COLO 205; [2]): 29.9%
- GI50 (TK-10; Homo sapiens, five dose): 17.7 µM
- IC50 (TK-10; Homo sapiens, five dose): 72.4 µM
- inhibition at 10 µM (TK-10; [2]): 58.9%
- TGI (TK-10; five dose): 100 µM
- GI50 (UO-31; Homo sapiens, five dose): 10.7 µM
- IC50 (UO-31; Homo sapiens, five dose): 19.5 µM
- inhibition at 10 µM (UO-31; [2]): 46.2%
- TGI (UO-31; five dose): 55.20 µM
- GI50 (SF-295; Homo sapiens, five dose): 0.6 µM
- IC50 (SF-295; Homo sapiens, five dose): 10.5 µM
- inhibition at 10 µM (SF-295; [2]): 79.2%
- TGI (SF-295; five dose): 100 µM
- GI50 ([1]; mean graph midpoint over all tested cell lines, five dose, read-out: MG-MID GI50): 0.21 µM
- inhibition at 10 µM ([1]; mean over the cell lines, single dose 10^−5 M, read-out: Mean growth inhibition (%)): 46.9%
- TGI (HT-29; HT29, five dose): 100 µM
- GI50 (HT-29; [3]): 19.6 µM
- IC50 (HT-29; [3]): 25.7 µM
- LC50 (concentration killing 50% of cells) (HT-29; [3]): > 100 µM
- inhibition at 10 µM (HT-29; Homo sapiens, HT-29, single dose 10^−5 M, read-out: Growth inhibition (%)): 14.7%
- GI50 (ACHN; Homo sapiens, five dose): 15.7 µM
- IC50 (ACHN; Homo sapiens, five dose): 29.5 µM
- LC50 (NCI-60 lethal concentration, 50% net cell kill) (ACHN; Homo sapiens, five dose): > 100 µM
- inhibition at 10 µM (ACHN; [2]): 34.3%
- TGI (ACHN; five dose): 100 µM
- GI50 (OVCAR-3; Homo sapiens, five dose): 0.32 µM
- IC50 (OVCAR-3; Homo sapiens, five dose): 0.676 µM
- inhibition at 10 µM (OVCAR-3; [2]): 114%
- TGI (OVCAR-3; five dose): 87.80 µM
- GI50 (MOLT-4; Homo sapiens, five dose): 19.1 µM
- IC50 (MOLT-4; Homo sapiens, five dose): 30.9 µM
- LC50 (50% lethal concentration) (MOLT-4; Homo sapiens, five dose): > 100 µM
- inhibition at 10 µM (MOLT-4; [2]): 13.5%
- TGI (MOLT-4; five dose): 100 µM
- GI50 (OVCAR-8; Homo sapiens, five dose): 12 µM
- IC50 (OVCAR-8; Homo sapiens, five dose): 20.4 µM
- inhibition at 10 µM (OVCAR-8; [2]): 25.1%
- TGI (OVCAR-8; five dose): 100 µM
- GI50 (K-562; Homo sapiens, K562, five dose): 1.98 µM
- IC50 (K-562; Homo sapiens, K562, five dose): 3.16 µM
- inhibition at 10 µM (K-562; Homo sapiens, K562, single dose 10^−5 M, read-out: Growth inhibition (%)): 64.1%
- TGI (K-562; five dose): 100 µM
- TGI (786-0; five dose): 100 µM
- GI50 (786-0; Homo sapiens, five dose): 37 µM
- IC50 (786-0; Homo sapiens, five dose): 77.6 µM
- LC50 (786-0; Homo sapiens, five dose): > 100 µM
- inhibition at 10 µM (786-0; [2]): 10%
